These results are taken from patent publication US20240226122A9, “TREATMENT OF GASTROINTESTINAL DISORDERS” (Greenspace Labs, Inc., priority 2022, published 2024).

A short description of the data set: Micro evaporation screening, re-dissolution of API:polymer matrices. It counts as physicochemical. The method, then: Micro evaporation screening experiments were done by dissolving API and polymer in an organic solvent and mixed in centrifuge tubes. Then the solvent was removed using vacuum concentrator. Samples were then mixed for 4, 10, and 30 minutes using phosphate buffer pH 6.8 as a reconstitution medium. For Eudragit S100 phosphate buffer pH 7.4 was used as a reconstitution media, citrate buffer pH 4.5 was used for Eudragit EPO. Phosphate buffer pH 6.8 was used for the rest of the polymers. Samples were mixed for 4, 10, and 30 minutes. Analysis was done by UV spectrometry to measure re-dissolution behavior of polymer system.
Several organic solvents were screened for the micro evaporation screening trials including acetone, tetrahydrofuran, dichloromethane, methanol, and ethanol.
Round 1 matrix Screening • 30:70 API:Soluplus • 30:70 API:Eudragit EPO • 30:70 API:Kollidon VA 64 • 25:75 API:PVP K30 • 25:75 API:Eudragit S100
Round 2 matrix screening with surfactants
Surfactants/solubilizers (5-10%) were screened for enhancement of spring-parachute effect, which is a strategy used in the pharmaceutical formulation to improve the solubility and bioavailability of poorly-soluble drugs: • PEG 1500 • Poloxamer 407 (HLB˜18) • SLS (HLB˜40) • Kolliphor RH40 (HLB−15) • TPGS (HLB˜13)
CBD Miniaturized Screening Experiment—Micro Evaporation Matrices screened: • API:Soluplus (30:70) • API:Eudragit EPO (30:70) • API:PVP K30 (25:75) • API:Eudragit S100 (25:75) • API:Kollidon VA64 (10:90) • API+Kollidon VA64+PEG1500 (10:85:5) • API+Kollidon VA64+SLS (10:85:5) • API+Kollidon VA64+Kolliphor RH40 (10:85:5) • API+Kollidon VA64+TPGS (10:85:5) • API+Kollidon VA64+Poloxamer 407 (10:85:5)
CBDA Miniaturized Screening Experiment—Micro Evaporation Matrices screened: • API:Eudragit EPO (30:70) • API:PVP K30 (30:70) • API:Soluplus (30:70) • API:Eudragit S100 (30:70) • API:Kollidon VA64 (25:75) • API+Kollidon VA64+PEG1500 (25:70:5) • API+Kollidon VA64+SLS (25:70:5) • API+Kollidon VA64+Kolliphor RH40 (25:70:5) • API+Kollidon VA64+TPGS (25:70:5) • API+Kollidon VA64+Poloxamer 407 (25:70:5)

Take `C=C(C)[C@@H]1CCC(C)=C[C@H]1c1c(O)cc(CCCCC)c(C(=O)O)c1O` [CBDA, cannabidiolic acid]: where the note is “CBDA matrix with Kollidon VA64 with addition of SLS, Kolliphor RH40, 10 and 30 min timepoints”, the dissolution concentration was 490 to 500 µg/mL.
Under “CBGA matrix with Kollidon VA64 with addition of SLS and Poloxamer 407”, `CCCCCc1cc(O)c(C/C=C(\C)CCC=C(C)C)c(O)c1C(=O)O` [CBGA, cannabigerolic acid] came in with a dissolution concentration of 520 to 550 µg/mL.
Regarding `C=C(C)[C@@H]1CCC(C)=C[C@H]1c1c(O)cc(CCCCC)cc1O` [CBD, cannabidiol, reference compound], the “re-dissolution of API from matrix” value (CBD matrix with Kollidon VA64, at 10 min, 1 mg API per tube) is listed as “complete dissolution”.
